The source of these data is publication PMC6328172, “5-HT2 receptor binding, functional activity and selectivity in N-benzyltryptamines” (PLoS ONE, 2019).

Structures are written as SMILES. “And” between values parts separate entries of the source, which are not always exact repeats. Identical values can stand only once. Counter-ions that a name gives are not always drawn. Like-named read-outs stand apart in the source and are kept apart here.

Data set [1] deals with 5-HT2A receptor. On the set-up: method as in PMID 27216487. Conditions: reported affinity; cited from earlier work.
Data set [2] addresses 5-HT2C receptor. On the set-up: method as in PMID 27216487. The following applies: reported affinity; cited from earlier work.
Data set [3] relates to head twitch response. The following applies: cited from earlier work.
Another data set has as its target human 5-HT2B receptor (Homo sapiens, UniProt P41595). Briefly: Competition binding to the human 5-HT2B receptor ([3H]LSD, CHO-5-HT2B membranes).
Data set [4] has as its target T1, human 5-HT2A receptor (Homo sapiens, UniProt P28223).
T1 construct: expressed in transfected cells; host or cells: CHO (CHO-5-HT2A cell line)
Nature of the data set: Competition binding to the human 5-HT2A receptor ([3H]ketanserin, CHO-5-HT2A membranes).

The target in data set [5] is T2, human 5-HT2C receptor (Homo sapiens, UniProt P28335).
T2 construct: expressed in transfected cells; host or cells: HeLa (HeLa-5-HT2C cell line)
T2 sequence (P28335 33-458): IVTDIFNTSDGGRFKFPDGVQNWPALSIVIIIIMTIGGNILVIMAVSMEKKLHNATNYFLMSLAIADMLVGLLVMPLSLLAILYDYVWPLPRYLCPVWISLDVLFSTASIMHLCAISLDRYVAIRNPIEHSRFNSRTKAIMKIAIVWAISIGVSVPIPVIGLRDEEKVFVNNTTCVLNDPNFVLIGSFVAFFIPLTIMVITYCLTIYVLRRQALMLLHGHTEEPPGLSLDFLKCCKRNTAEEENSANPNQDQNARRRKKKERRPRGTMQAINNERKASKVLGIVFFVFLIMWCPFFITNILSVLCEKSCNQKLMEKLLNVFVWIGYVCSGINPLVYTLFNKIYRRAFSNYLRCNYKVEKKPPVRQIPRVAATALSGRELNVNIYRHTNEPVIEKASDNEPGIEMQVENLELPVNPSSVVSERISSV
Briefly: Competition binding to the human 5-HT2C receptor ([3H]mesulergine, HeLa-5-HT2C membranes).

Data set [6] deals with T1, human 5-HT2A receptor. Nature of the data set: Ca2+ mobilization in CHO h5-HT2A cells. The format is cell-based.
For data set [7], the system named is 5-HT2A receptor. The following applies: described by Nichols; cited from earlier work.
The target in data set [8] is T2, human 5-HT2C receptor. Nature of the data set: Ca2+ mobilization in HeLa h5-HT2C cells. The format is cell-based.
In data set [9] the target is 5-HT2A receptor. Conditions: described by Nichols; cited from earlier work. The source holds these as a separate data set.
In data set [10] the test system is 5-HT2C receptor. The following applies: cited from earlier work.
Another data set has as its target 5-HT2A receptors. The following applies: cited from earlier work.
Data set [11] has as its system head twitch response. Briefly: Mouse head twitch response (HTR) assay (literature). The format is in vivo. Conditions: from the HTR ED50 values.
Setting [12] is: relative efficacy, % of response to 5-HT.

T1 sequence (P28223 whole entry): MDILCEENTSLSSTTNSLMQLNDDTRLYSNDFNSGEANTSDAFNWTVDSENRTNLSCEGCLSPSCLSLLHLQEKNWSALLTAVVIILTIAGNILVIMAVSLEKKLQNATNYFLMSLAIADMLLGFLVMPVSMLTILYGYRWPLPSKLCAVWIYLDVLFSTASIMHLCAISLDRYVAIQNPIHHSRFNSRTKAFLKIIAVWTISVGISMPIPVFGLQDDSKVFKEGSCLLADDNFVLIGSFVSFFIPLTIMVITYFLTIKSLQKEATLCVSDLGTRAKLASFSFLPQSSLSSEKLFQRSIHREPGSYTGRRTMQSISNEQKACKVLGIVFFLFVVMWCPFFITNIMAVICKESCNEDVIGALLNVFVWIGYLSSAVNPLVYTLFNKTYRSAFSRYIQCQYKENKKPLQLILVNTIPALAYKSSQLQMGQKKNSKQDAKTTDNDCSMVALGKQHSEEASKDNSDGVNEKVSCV
human 5-HT2B receptor, sequence (P41595 whole entry): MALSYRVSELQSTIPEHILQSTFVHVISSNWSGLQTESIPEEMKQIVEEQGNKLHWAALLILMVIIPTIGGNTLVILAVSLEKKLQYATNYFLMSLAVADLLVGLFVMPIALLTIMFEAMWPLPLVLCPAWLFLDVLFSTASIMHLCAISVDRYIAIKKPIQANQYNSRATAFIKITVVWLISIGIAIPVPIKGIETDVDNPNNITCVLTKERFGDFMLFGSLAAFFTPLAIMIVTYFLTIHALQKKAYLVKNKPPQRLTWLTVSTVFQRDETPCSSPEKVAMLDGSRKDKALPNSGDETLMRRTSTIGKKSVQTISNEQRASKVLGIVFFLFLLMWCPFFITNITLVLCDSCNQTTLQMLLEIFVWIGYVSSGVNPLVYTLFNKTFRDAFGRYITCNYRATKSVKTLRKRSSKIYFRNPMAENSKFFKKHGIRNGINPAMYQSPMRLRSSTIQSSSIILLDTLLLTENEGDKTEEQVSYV

For the compound `COc1ccc2[nH]cc(CCN(C)C(C)C)c2c1` [N-isopropyl-N-methyl-5-methoxytryptamine], the Ki at 5-HT2A receptor [1] was 165 nM; on 5-HT2C receptor [2] it was 1300 nM.
In turn, `COc1cccc(CNCCc2c[nH]c3ccccc23)c1OC` (as salt: hydrochloride) [Compound 20, N-(2,3-Dimethoxybenzyl)-[2-(1H-indol-3-yl)ethyl]amine] showed a melting point of 210 to 212 °C.
Take `COc1ccc2[nH]cc(CCNCc3cc(F)ccc3O)c2c1` (as salt: fumarate) [Compound 43, N-(5-Fluoro-2-hydroxybenzyl)-[2-(5-methoxy-1H-indol-3-yl)ethyl]amine]: the melting point is 200 to 201 °C.
For `CC(C)N(CCc1c[nH]c2ccccc12)C(C)C` [N,N-diisopropyltryptamine], the Ki was 1200 nM at 5-HT2A receptor [1] and 6500 nM on 5-HT2C receptor [2].
Take `CN(C)CCc1c[nH]c2ccccc12` [N,N-dimethyltryptamine]: the values for the Ki at 5-HT2A receptor [1] and at 5-HT2C receptor [2] were 237 nM and 424 nM, respectively.
For `Oc1c(Br)cc(Br)cc1CNCCc1c[nH]c2ccccc12` (as salt: hydrochloride) [Compound 35, N-(3,5-Dibromo-2-hydroxybenzyl)-[2-(1H-indol-3-yl)ethyl]amine], the melting point lay within 183 to 184 °C.
On to `Oc1cccc(CNCCc2c[nH]c3ccccc23)c1` (as salt: fumarate) [Compound 7, N-(3-Hydroxybenzyl)-[2-(1H-indol-3-yl)ethyl]amine], for which the melting point fell in the range of 206 to 207 °C.
`Oc1ccccc1CNCCc1c[nH]c2ccccc12` (as salt: hydrochloride) [Compound 2, N-(2-Hydroxybenzyl)-[2-(1H-indol-3-yl)ethyl]amine] displayed a melting point of 222 to 223 °C.
Compound `Oc1cccc(F)c1CNCCc1c[nH]c2ccccc12` (as salt: succinate) [Compound 34, N-(6-Fluoro-2-hydroxybenzyl)-[2-(1H-indol-3-yl)ethyl]amine] yielded a melting point of 159 to 161 °C.
In the case of `COc1ccc2[nH]cc(CCNCc3ccccc3OC)c2c1` [Compound 38, N-(2-Methoxybenzyl)-[2-(5-methoxy-1H-indol-3-il)ethyl]amine], in the data set with head twitch response [3], the “ED50 in the mouse head twitch response (HTR) assay” value was 3.15 mg/kg. Also, the Ki is 15.9 nM on human 5-HT2B receptor; 44.7 nM at human 5-HT2A receptor [4] (human receptor, [3H]ketanserin displacement, no unit in the table, nM, read-out: 5-HT2A Ki (in parentheses) (converted)); 69.2 nM at human 5-HT2C receptor [5] (human receptor, [3H]mesulergine displacement, no unit in the table, nM, read-out: 5-HT2C Ki (in parentheses) (converted)); 16.6 nM on 5-HT2A receptor [9]. Also, the “Selectivity 5-HT2A/2C (binding)” value at human 5-HT2A receptor [4] (from Ki values, Table 1) stood at 1.55. For the same compound, the “Selectivity 5-HT2C/2A (binding, in parentheses)” value on human 5-HT2C receptor [5] (from Ki values, Table 1) was 0.65. On human 5-HT2A receptor [6] (Ca2+ mobilization, pEC50 ± SEM), the “5-HT2A pEC50” value stood at 8.70 ± 0.20. The EC50 at human 5-HT2A receptor [6] (Ca2+ mobilization, no unit in the table, nM, read-out: 5-HT2A EC50 (in parentheses) (converted)) was 2 nM and 1.99 nM; at 5-HT2A receptor [7] it was 1.9 nM; on human 5-HT2C receptor [8] (Ca2+ mobilization, no unit in the table, nM, read-out: 5-HT2C EC50 (in parentheses) (converted)) it was 3.8 nM. In addition, at human 5-HT2A receptor [6] (from EC50 values, Table 2), the “Selectivity 5-HT2A/2C (functional)” value is reported as 1.91. Moreover, at human 5-HT2A receptor [6] (setting [12]), the “5-HT2A % Emax” value was 83.66 ± 3.42%. In addition, the Emax was determined as 84% at human 5-HT2A receptor [6] (setting [12]) and 88.7 ± 4.22% on human 5-HT2C receptor [8] (HeLa, read-out: 5-HT2C % Emax). Also, the “5-HT2A Emax” value in the data set with 5-HT2A receptor [7] is 81%. For the same compound, on human 5-HT2C receptor [8] (from EC50 values, Table 2), the “Selectivity 5-HT2C/2A (functional, in parentheses)” value was found to be 0.53.
Consider `CCOc1ccc(CNCCc2c[nH]c3ccccc23)cc1` (as salt: hydrochloride) [Compound 15, N-(4-Ethoxybenzyl)-[2-(1H-indol-3-yl)ethyl]amine], for which the melting point was in the range of 206 to 208 °C.
On the same count and under the same terms, with `COc1ccc(F)cc1CNCCc1c[nH]c2ccccc12` (as salt: hydrochloride) [Compound 25, N-(5-Fluoro-2-methoxybenzyl)-[2-(1H-indol-3-yl)ethyl]amine] the figure was 179 to 180 °C; with `COc1ccc(O)c(CNCCc2c[nH]c3ccc(OC)cc23)c1` (as salt: fumarate) [Compound 42, N-(2-Hydroxy-5-methoxybenzyl)-[2-(5-methoxy-1H-indol-3-yl)ethyl]amine], 196 to 197 °C; with `COc1cccc(CNCCc2c[nH]c3ccccc23)c1O` (as salt: succinate) [Compound 19, N-(2-Hydroxy-3-methoxybenzyl)-[2-(1H-indol-3-yl)ethyl]amine], 109 to 111 °C.
As for `C[C@H]1CNCCc2ccc(Cl)cc21` [lorcaserin, 1(R)-8-chloro-1-methyl.2,3,4,5-tetrahydro-(1H)-3-benzazepine], the “agonist character at 5-HT2C (in words)” value with 5-HT2C receptor [10] is on record as “full 5-HT2C agonist”. The “pEC50(2A)” value at 5-HT2A receptors (Fig 6) is listed as 6.8. Further, the “efficacy at 5-HT2A receptors” value with 5-HT2A receptors (partial agonist) is on record as “about 70%”.
In the case of `Oc1cc(Br)ccc1CNCCc1c[nH]c2ccccc12` (as salt: hydrochloride) [Compound 31, N-(4-Bromo-2-hydroxybenzyl)-[2-(1H-indol-3-yl)ethyl]amine], the melting point lay within 192 to 194 °C.
`COc1cc(CCNCc2ccccc2OC)c(OC)cc1I` [Compound 25I-NBOMe, 4-iodo-2,5-dimethoxy-N-(2-methoxybenzyl)phenethylamine, reference compound]: the “fold higher in vivo potency (HTR) than compound 38” value in the data set with head twitch response [11] is 40 fold. Further, the “ED50 in the mouse head twitch response (HTR) assay” value in the data set with head twitch response [3] is 0.078 mg/kg. For the same compound, the Ki at 5-HT2A receptor [9] was 0.52 nM.
In turn, `COc1ccc(CNCCc2c[nH]c3ccccc23)c(OC)c1` (as salt: hydrochloride) [Compound 32, N-(2,4-Dimethoxybenzyl)-[2-(1H-indol-3-yl)ethyl]amine] displayed a melting point of 184 to 186 °C.
`COc1ccc(Cl)cc1CNCCc1c[nH]c2ccccc12` (as salt: hydrochloride) [Compound 28, N-(5-Chloro-2-methoxybenzyl)-[2-(1H-indol-3-yl)ethyl]amine] registered a melting point of 184 to 185 °C.
